{
  "source": "patent US11332503B2",
  "about": "“Peptides for treatment and prevention of hyperglycaemia” (UNIVERSITE DE STRASBOURG, priority 2017, dated 2022)",
  "system": "human adipocytes",
  "test": "Glucose entry in human adipocytes after native or stapled peptide treatment (FIG. 4D-E)",
  "assay_type": "cell-based",
  "conditions": "native peptide, absence of insulin",
  "description": "FIG. 4: In vitro characterization of two peptides for their glucose absorption triggering capacity. • (A) Representative picture depicting the cellular entry assessment of the mixture of FAM-labelled stapled peptides A (SEQ ID No 9) and B (SEQ ID No 11) in human adipocytes. DIC: Differential interference contrast mode for living cell acquisition in left panel. In right panel, fluorescent detection of the FAM-labelled peptide with the labelled plasma membrane (PM). • (B) 3D images of the cellular uptake of PATAD peptides identified in FIG. 3; either peptide A (left panel) or peptide B (right panel) treated adipocyte showing the spots inside the peptide inside the adipocyte. • (C) Photographs showing absorption of 2-NBDG in absence of INS in adipocytes following treatment with a combination of the stapled peptides A and B. • (D) Quantification of intracellular glucose analogue 2-NB in absence of INS in adipocytes following the indicated peptide treatment (n=8 per group). • (E) Quantification of intracellular glucose analogue 2-NB in presence of INS in adipocytes following the indicated peptide treatment (n=8 per group). […]\nMature adipocytes were cultured in 96 well plate. […] 24 hours later, the glucose absorption capacity if the treated cells were assessed using the Glucose Uptake Colorimetric Assay kit from Bio Vision (Catalog #: K676-100). […]",
  "data": [
    {"sequence": "SICKGLMTKHPAKRLGCGPEG (native or hydrocarbon-stapled; listed as Homo sapiens) [peptide B, PATAD peptide from human αPKC, tested native and stapled]", "values": [
      {"measurement": "entry of glucose into the adipocyte", "value": "significant entry of glucose"}
    ]}
  ]
}
